Laboratory results reported in patent US11952349B2, “Anti-cancer nuclear hormone receptor-targeting compounds” (Nuvation Bio Inc., priority 2019, dated 2024).
Read-outs that look alike come from different tables or passages of the source.

Columns and labels:
Human recombinant PARP2 = Human recombinant PARP2 (Homo sapiens, UniProt Q9UGN5); experiment: RBC HotSpot PARP2 assay (radioisotope-based filter binding); type: biochemical
Procedure: The following methods are for evaluating the in vitro biology properties of the test articles. • a. RBC HotSpot Poly(ADP-ribose) Polymerases 1 (PARP1) and Poly(ADP-ribose) Polymerases 2 (PARP2) Assays: The assay was conducted at Reaction Biology Corporation (RBC; Malvern, PA). The assay principle is radioisotope-based filter binding assay where incorporation of radioisotope-labeled NAD^+ into the substrate captured on filter is detected after washout free NAD^+. Data were analyzed using Excel and GraphPad Prism software for IC50 curve fits. Each assay was conducted with PJ34 as a positive control. PARP1 assay: Human recombinant PARP1 at a final concentration of 2.5 nM was combined with histone H4 (20 μM) and test articles at various concentrations in reaction buffer (50 mM Tris-HCL, pH 8.0, 50 mM NaCl, 10 mM MgCl2, 1 mM DTT, 1% DMSO, and 20 μg/mL activated DNA). The solution was inoculated for 20 min at room temperature and the reaction initiated by adding [adenylate-^32P]-Nicotinamide Adenine Dinucleotide, ^32P-NAD^+ at a final concentration of 10 μM. After incubation for 2 hrs at room temperature, the reaction mixture was filtered and washed with 0.75% phosphoric acid for radioactivity detection. • ii. PARP2 assay: Human recombinant PARP2 at a final concentration of 2.5 nM was combined with histone H3 (20 μM) and test articles at various concentrations in reaction buffer (50 mM Tris-HCL, pH 8.0, 50 mM NaCl, 10 mM MgCl2, 1 mM DTT, 1% DMSO, and 20 μg/mL activated DNA). The solution was inoculated for 20 min at room temperature and the reaction was initiated by adding [adenylate-^32P]-Nicotinamide Adenine Dinucleotide, ^32P-NAD^+ at a final concentration of 10 μM. After incubation for 2 hrs at room temperature, the reaction mixture was filtered and washed with 0.75% phosphoric acid for radioactivity detection. • b. AR binding assay: AR in LNCaP cytosol was used for determining the binding affinity of test articles and the reference compound—progesterone (Sigma, Cat: E2785, St. Louis, MO). IC50 s were determined using 8 concentrations/compound. Cytosol is plated at 200 μg/well (100 μL) into a 96-well conical polypropylene plate (Agilent, Cat: 5042-1385, Santa Clara, CA) and mixed with 3 μL of test compound. After adding 100 μL of ^3H-methyltrienolone (PerkinElmer, Cat: NET590250UC, San Jose, CA), the plate was sealed and shaken at 300 rpm at 4° C. for 24 hours. Post incubation, 100 μL of radioligand adsorption buffer containing 10 mM Tris-HCl, pH 7.4; 1.5 mM EDTA; 1 mM DTT; 0.25% charcoal; 0.0025% dextran was added to individual wells. Plate was shaken for 15 min at 4° C. followed by centrifugation at 3000 rpm for 30 min at 4° C. 150 μL of supernatant is transferred into scint-tube (PerkinElmer, Cat: 6000192) and mixed with 2 mL of Ultima Gold Cocktail (PerkinElmer, Cat: 6013329). Radioactivity is counted using a TriCarb 2910 TR scintillation counter (PerkinElmer). Inhibition of the radioactivity by test articles was calculated using the equation below: % Inhibition=(1−(Assay well−Average_LC)/(Average_HC−Average_LC))×100%. • IC50 values (Table 6) were calculated and graphed using the model “log(inhibitor) vs. response—Variable slope” included in GraphPad Prism 5 (San Diego, CA). The Ki values were further calculated using the equation below where [L] is the radioligand concentration (1 nM) used in this study. Kd value was 0.332 nM. Ki=IC50/(1+[L]/Kd) • c. AR transactivation: Human AR cloned into a CMV vector backbone is used for the transactivation study. HEK-293 cells are plated at 80,000 cells per well of a 24 well plate in DME+5% csFBS. Twenty four hours later, the cells are transfected using Lipofectamine (Invitrogen, Carlsbad, CA) with 0.25 μg GRE-LUC, 0.01 μg CMV-LUC (renilla luciferase) and 25 ng of the AR in OPTIMEM medium. The cells are treated 24 hrs after transfection with various ligands (10^−12 to 10^−5 M final concentrations) and luciferase assay performed 48 hours after transfection. […]

LNCap cells = experiment: Cell viability assay (CellTiterGlo, 6 days) LNCap; type: cell-based; settings: Homo sapiens, 144 h
Procedure: Cell viability assay: LNCap, 22Rv1, and T47D cells were seeded at a density of 1500-2000 cells/well in 96 well plates, and a ‘T0’ (timepoint 0) was included along with the assay plate. The plates were then incubated at 37° C., 5% CO2 in a cell culture incubator overnight. On the next day, the ‘T0’ plate was assayed using CellTiterGlo (Promega, Inc) according to the manufacturer's instructions. The appropriate compounds were diluted in DMSO and added to the assay plate (final DMSO concentration of 0.2%) on the next day. The assay plates were incubated for 6 days at 37° C., 5% CO2. After the incubation period, the plates were assayed using CellTiterGlo (Promega, Inc) according to the manufacturer's instructions and luminescence was read on the EnVision plate reader. Inhibition the tested compounds was determined by the following formula: Inhibition rate (%)=(1−(RLU compound−RLU day0)/(RLU control−RLU day0))*100%. GraphPadPrism was used to analyze the data and determine absolute IC50 values.

Sequence of Human recombinant PARP2 (Q9UGN5 whole entry): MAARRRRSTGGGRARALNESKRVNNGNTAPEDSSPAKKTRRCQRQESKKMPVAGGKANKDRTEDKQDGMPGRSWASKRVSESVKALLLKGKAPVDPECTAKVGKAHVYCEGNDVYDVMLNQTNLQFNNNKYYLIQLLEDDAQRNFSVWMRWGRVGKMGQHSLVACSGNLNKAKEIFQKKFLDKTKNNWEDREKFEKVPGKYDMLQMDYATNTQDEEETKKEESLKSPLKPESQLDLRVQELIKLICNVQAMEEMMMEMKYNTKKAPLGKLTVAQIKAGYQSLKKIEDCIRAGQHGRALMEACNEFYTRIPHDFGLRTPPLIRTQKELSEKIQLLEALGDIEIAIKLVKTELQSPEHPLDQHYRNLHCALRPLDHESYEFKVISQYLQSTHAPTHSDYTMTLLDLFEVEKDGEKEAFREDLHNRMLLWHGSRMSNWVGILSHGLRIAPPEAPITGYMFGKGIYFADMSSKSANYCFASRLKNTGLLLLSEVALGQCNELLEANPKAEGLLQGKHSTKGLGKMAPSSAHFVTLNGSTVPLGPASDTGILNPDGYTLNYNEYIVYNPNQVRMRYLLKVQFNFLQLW

| IC50 (LNCap cells; Table 8) | SMILES | IC50 (Human recombinant PARP2; Table 9, read-out: PARP2) | IC50 (LNCap cells; Table 7) | IC50 (Human recombinant PARP2; Table 5, in vitro results, read-out: PARP2 IC50) |
| --- | --- | --- | --- | --- |
|  | C[C@@]12CCC(=O)C[C@H]1CC[C@H]1[C@H]2CC[C@]2(C)[C@@H]1CC[C@H]2OCCCCCCNC(=O)c1cc(Cc2n[nH]c(=O)c3ccccc23)ccc1F (stereo in doubt) [Compound 1426, N-(6-((5R,8S,9R,10R,13R,14R,17R)-10,13-dimethyl-3-oxohexadecahydro-1H-cyclopenta[a]phenanthren-17-yloxy)hexyl)-2-fluoro-5-((4-oxo-3,4-dihydrophthalazin-1-yl)methyl)benzamide] | 1 to 10 nM | 1000 to 10000 nM |  |
| 100 to 1000 nM | CC#C[C@]1(O)CC[C@H]2[C@@H]3CCC4=CC(=O)CCC4=C3[C@@H](c3ccc(N(C)CCCCCC(=O)N4CCN(C(=O)c5cc(Cc6n[nH]c(=O)c7ccccc67)ccc5F)CC4)cc3)C[C@@]21C [Compound 135, 4-(4-fluoro-3-(4-(6-((4-((8S,11R,13S,14S,17S)-17-hydroxy-13-methyl-3-oxo-17-(prop-1-ynyl)-2,3,6,7,8,11,12,13,14,15,16,17-dodecahydro-1H-cyclopenta[a]phenanthren-11-yl)phenyl)(methyl)amino)hexanoyl)piperazine-1-carbonyl)benzyl)phthalazin-1(2H)-one] | < 1 nM |  |  |
|  | C[C@]12C[C@H](CCCCCC(=O)N3CCN(C(=O)c4cc(Cc5n[nH]c(=O)c6ccccc56)ccc4F)CC3)C3=C4CCC(=O)C=C4CC[C@H]3[C@@H]1CCC2O (stereo partly drawn) [Compound 138, 4-(4-fluoro-3-(4-(6-((8S,11S,13S,14S)-17-hydroxy-13-methyl-3-oxo-2,3,6,7,8,11,12,13,14,15,16,17-dodecahydro-1H-cyclopenta[a]phenanthren-11-yl)hexanoyl)piperazine-1-carbonyl)benzyl)phthalazin-1(2H)-one] | < 1 nM | 100 to 1000 nM |  |
|  | Cn1ncnc1C1c2n[nH]c(=O)c3cc(F)cc(c23)N[C@@H]1c1ccc(NC(=O)CCCCCO[C@@H]2CC[C@H]3[C@@H]4CC[C@H]5CCCC[C@]5(C)[C@H]4CC[C@]23C)cc1 (stereo partly drawn) [Compound 1128, 6-((5R,8R,9S,10S,13S,14S,17R)-10,13-dimethylhexadecahydro-1H-cyclopenta[a]phenanthren-17-yloxy)-N-(4-((8S)-5-fluoro-9-(1-methyl-1H-1,2,4-triazol-5-yl)-3-oxo-3,7,8,9-tetrahydro-2H-pyrido[4,3,2-de]phthalazin-8-yl)phenyl)hexanamide] |  | 100 to 1000 nM | 14 nM |
| 100 to 1000 nM | CC(=O)O[C@]1(C(C)=O)CC[C@H]2[C@@H]3CCC4=CC(=O)CCC4=C3[C@@H](c3ccc(N(C)CCCCCC(=O)N4CCN(C(=O)c5cc(Cc6n[nH]c(=O)c7ccccc67)ccc5F)CC4)cc3)C[C@@]21C [Compound 1378, (8S,11R,13S,14S,17R)-17-acetyl-11-(4-((6-(4-(2-fluoro-5-((4-oxo-3,4-dihydrophthalazin-1-yl)methyl)benzoyl)piperazin-1-yl)-6-oxohexyl)(methyl)amino)phenyl)-13-methyl-3-oxo-2,3,6,7,8,11,12,13,14,15,16,17-dodecahydro-1H-cyclopenta[a]phenanthren-17-yl acetate] | < 1 nM |  |  |
| 1000 to 10000 nM | CC(=O)O[C@]1(C(C)=O)CC[C@H]2[C@@H]3CCC4=CC(=O)CCC4=C3[C@@H](c3ccc(N(C)CCCCCC(=O)NCCOCCOCC(=O)N4CCN(C(=O)c5cc(Cc6n[nH]c(=O)c7ccccc67)ccc5F)CC4)cc3)C[C@@]21C [Compound 1384, (8S,11R,13S,14S,17R)-17-acetyl-11-(4-((6-(2-(2-(2-(4-(2-fluoro-5-((4-oxo-3,4-dihydrophthalazin-1-yl)methyl)benzoyl)piperazin-1-yl)-2-oxoethoxy)ethoxy)ethylamino)-6-oxohexyl)(methyl)amino)phenyl)-13-methyl-3-oxo-2,3,6,7,8,11,12,13,14,15,16,17-dodecahydro-1H-cyclopenta[a]phenanthren-17-yl acetate] | < 1 nM |  |  |
|  | C[C@]12Cc3cn[nH]c3C[C@@H]1CC[C@@H]1[C@@H]2CC[C@]2(C)[C@@H](OCCCCCC(=O)N3CCN(C(=O)c4cc(Cc5n[nH]c(=O)c6ccccc56)ccc4F)CC3)CC[C@@H]12 [Compound 1394, 4-(3-(4-(6-(((1S,3aS,3bR,5aS,10aS,10bS,12aS)-10a,12a-dimethyl-1,2,3,3a,3b,4,5,5a,6,7,10,10a,10b,11,12,12a-hexadecahydrocyclopenta[5,6]naphtho[1,2-f]indazol-1-yl)oxy)hexanoyl)piperazine-1-carbonyl)-4-fluorobenzyl)phthalazin-1(2H)-one] | 1 to 10 nM | 100 to 1000 nM |  |
| > 10000 nM | CC#C[C@]1(O)CC[C@H]2[C@@H]3CCC4=CC(=O)CCC4=C3[C@@H](c3ccc(N(C)CCCCCC(=O)NCCOCCOCC(=O)N4CCN(C(=O)c5cc(Cc6n[nH]c(=O)c7ccccc67)ccc5F)CC4)cc3)C[C@@]21C [Compound 1429, N-(2-(2-(2-(4-(2-fluoro-5-((4-oxo-3,4-dihydrophthalazin-1-yl)methyl)benzoyl)piperazin-1-yl)-2-oxoethoxy)ethoxy)ethyl)-6-((4-((8S,11R,13S,14S,17S)-17-hydroxy-13-methyl-3-oxo-17-(prop-1-ynyl)-2,3,6,7,8,11,12,13,14,15,16,17-dodecahydro-1H-cyclopenta[a]phenanthren-11-yl)phenyl)(methyl)amino)hexanamide] | < 1 nM |  |  |

| SMILES | IC50 (LNCap cells; Table 8) | IC50 (Human recombinant PARP2; Table 9, read-out: PARP2) | IC50 (LNCap cells; Table 7) | IC50 (Human recombinant PARP2; Table 5, in vitro results, read-out: PARP2 IC50) |
| --- | --- | --- | --- | --- |
| C[C@]12CC[C@H]3[C@@H](CCC4=CC(=O)CC[C@@]43C)[C@@H]1CC[C@@H]2C(=O)COCCCCCC(=O)N1CCN(C(=O)c2cc(Cc3n[nH]c(=O)c4ccccc34)ccc2F)CC1 [Compound 1386, 4-(3-(4-(6-(2-((8S,9S,10R,13S,14S,17S)-10,13-dimethyl-3-oxo-2,3,6,7,8,9,10,11,12,13,14,15,16,17-tetradecahydro-1H-cyclopenta[a]phenanthren-17-yl)-2-oxoethoxy)hexanoyl)piperazine-1-carbonyl)-4-fluorobenzyl)phthalazin-1(2H)-one] | 100 to 1000 nM | < 1 nM |  |  |
